Earlier results, collected in patent US20110143366A1, “PROTEIN BIOMARKERS FOR IN VITRO TESTING OF DEVELOPMENTAL TOXICITY AND ENBRYOTOXICITY OF CHEMICAL SUBSTANCES” (PROTEOSYS AG, priority 2008, published 2011).

Tested on: Cardiomyocytes differentiated from murine embryonic stem cells (EST model)
Conditions: substances with known embryotoxic potency used in the EST model

In the case of CC[C@H](C)C(=O)O[C@H]1C[C@@H](C)C=C2C=C[C@H](C)[C@H](CC[C@@H]3C[C@@H](O)CC(=O)O3)[C@H]21 [Lovastatin], the “Embryotoxicity class of the substance” value is listed as “highly embryotoxic”.
For N#CCCN [β-aminoproprionitril], the “Embryotoxicity class of the substance” value is listed as “non-embryotoxic”.
In the case of CN(C)CCOC(C)(c1ccccc1)c1ccccn1 (centres unmarked) [doxylamine], the “Embryotoxicity class of the substance” value is listed as “non-embryotoxic”.
For O=[N+]([O-])c1ccc(Oc2ccc(Cl)cc2Cl)cc1 [Nitrofen], the “Embryotoxicity class of the substance” value is listed as “highly embryotoxic”.
In the case of CCN(CC)CCNC(=O)c1cc(Cl)c(N)cc1OC [metoclopramide], the “Embryotoxicity class of the substance” value is listed as “non-embryotoxic”.
In the case of C[C@@H]1Cc2c(Cl)cc(C(=O)N[C@@H](Cc3ccccc3)C(=O)O)c(O)c2C(=O)O1 [Ochratoxin, Ochratoxin-A], the “Embryotoxicity class of the substance” value is given as “highly embryotoxic”.
In the case of CC[C@H](C)C(=O)O[C@H]1C[C@H](O)C=C2C=C[C@H](C)[C@H](CC[C@@H](O)C[C@@H](O)CC(=O)O)[C@H]21 [pravastatin], the “Embryotoxicity class of the substance” value is given as “moderately embryotoxic”.
For CC(C)(S)[C@@H](N)C(=O)O [D-penicillamine], the “Embryotoxicity class of the substance” value is listed as “non-embryotoxic”.
